Like-named read-outs stand apart in the source and are kept apart here. One block for each molecule: values may come before it.
Experiments:
[1] = target: T1, α2 adrenergic receptors of rat cerebral cortex (Rattus norvegicus, UniProt P22909); assay: [3H] yohimbine binding, rat cerebral cortex (α2); design: species or system rat (male Wistar)
T1 construct: The preparation of the cerebral cortex homogenates is made starting from male Wistar rats; from tissue; host or cells: cerebral cortex homogenate of male Wistar rats
T1 sequence (P22909 1-465): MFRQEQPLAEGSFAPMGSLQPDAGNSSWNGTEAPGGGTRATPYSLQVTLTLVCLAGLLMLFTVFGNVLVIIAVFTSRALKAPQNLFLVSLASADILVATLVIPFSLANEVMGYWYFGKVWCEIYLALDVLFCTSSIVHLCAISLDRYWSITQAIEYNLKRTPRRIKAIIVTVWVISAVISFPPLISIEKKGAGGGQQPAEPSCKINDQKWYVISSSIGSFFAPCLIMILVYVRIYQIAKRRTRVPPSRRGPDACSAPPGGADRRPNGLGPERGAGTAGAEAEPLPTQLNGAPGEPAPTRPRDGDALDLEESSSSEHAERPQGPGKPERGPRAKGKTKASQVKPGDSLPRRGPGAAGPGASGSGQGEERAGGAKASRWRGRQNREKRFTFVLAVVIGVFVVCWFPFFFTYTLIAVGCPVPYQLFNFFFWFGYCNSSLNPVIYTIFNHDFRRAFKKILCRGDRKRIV
Procedure: (§1) The preparation of the cerebral cortex homogenates is made starting from male Wistar rats, age 12 weeks. After decapitation, the brains are rapidly removed and dissected. The tissues are homogenized with the aid of an ultra-turrax in 50 mM of a pH 7.5 Tris-HCl buffer and centrifuged at 40,000 g for ten minutes. The centrifugate is dissolved in buffer and recentrifuged in the same way. All of the operations are carried out at a temperature less than 4° C. The final centrifugate is homogenized in the incubation buffer maintained in melting ice (tris-HCl 50 mM pH 7.5) so as to obtain a final dilution of the cortical tissue of 1/100 (by volume), which corresponds to about 0.5 mg of protein per ml.
(§2) These filters are rinsed 4 times with 5 ml of incubation buffer preserved in ice. The radioactivity retained on the filters is counted by liquid scintillation. The non-specific fixation of the radioactive ligand is evaluated in the presence of 10 μM phentolamine.
(§3) Starting from the inhibition curves for the specific fixation of a ligand to its receptor by increasing quantities of a non-radioactive product, the inhibition constant (Ki) of this product is determined.

[2] = target: α1 adrenergic receptors of rat cerebral cortex; assay: [3H] prazosine binding, rat cerebral cortex (α1); design: species or system rat (male Wistar); conditions: for Ki: read-out: Prazosine [^3 H] Ki nM, rat cerebral cortex, 0.2 nM [3H] prazosine, 25° C., 30 minutes, at least three experiments ± standard deviation
Procedure: as §1, §2, §3

serotonergic receptor = assay: binding sites of [3H] ketanserine
[3] = target: T2, α1 adrenergic receptors of isolated rat deferent canal (Rattus norvegicus, UniProt P43140); assay: antagonism with phenylephrine induced contraction of rat deferent canal; design: species or system rat (male Wistar); conditions: for effect on effect-concentration curves of phenylephrine: FIG. 3; for slope of Schild relation, antagonism with phenylephrine: rat deferent canal
T2 construct: The deferent canals of 12-week old male Wistar rats are removed; from tissue; host or cells: isolated vas deferens (deferent canal) of male Wistar rats
T2 sequence (P43140 1-466): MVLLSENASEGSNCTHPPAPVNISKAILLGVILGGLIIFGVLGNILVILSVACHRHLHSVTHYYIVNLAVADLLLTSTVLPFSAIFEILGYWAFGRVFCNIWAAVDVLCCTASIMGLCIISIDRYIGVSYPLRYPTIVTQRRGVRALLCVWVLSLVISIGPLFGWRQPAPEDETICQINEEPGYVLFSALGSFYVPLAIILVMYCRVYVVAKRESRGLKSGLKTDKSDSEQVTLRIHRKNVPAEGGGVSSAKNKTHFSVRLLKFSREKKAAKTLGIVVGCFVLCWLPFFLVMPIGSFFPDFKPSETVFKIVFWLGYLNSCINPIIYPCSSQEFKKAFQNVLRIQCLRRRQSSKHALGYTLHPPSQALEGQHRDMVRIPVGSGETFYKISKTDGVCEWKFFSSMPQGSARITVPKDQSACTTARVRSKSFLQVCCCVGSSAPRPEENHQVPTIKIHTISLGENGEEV
Procedure: The deferent canals of 12-week old male Wistar rats are removed.
Each organ is connected to an isometric sensor of tradename Statham, made by Gould Inc., Medical Product Division, under a base tension of 0.5 g. Contractions are recorded by a polygraph of tradename Beckman, made by Beckman. To characterize the α2 blocking effect, the deferent canal is electrically stimulated by rectangular impulses of 2 msec duration, 30 volts, with a frequency of 0.2 Hz delivered by a stimulator of tradename Bioscience (Stimulator 100), made by Palmer. After a rest period of 20-30 minutes, increasing concentrations of clonidine are added to the survival medium over 2 minutes. This permits establishing the relation between the effect and concentration of clonidine. After generating two successive, cumulative effect-concentration curves separated by a rest period of 20 minutes, the antagonist is placed in contact with the isolated organ for 10 minutes and a new effect-concentration relationship is determined.
To characterize the α1 blocking effect, the organ is stimulated by phenylephrine. […] After a rest period of 30 minutes, increasing concentrations of phenylephrine are added in the organ cell over 30 seconds. A first effect-concentration relationship is established. After a washing and a new rest period of 15 mins. wherein the organ returns to the initial tension, a second effect-concentration relationship is effected. The antagonist is placed in contact with the tissue returned to its base tension after washing and a third effect-concentration relationship is determined. […] The apparent dissociation constant (KD), calculated according to Furchgott, is the relation between the molar concentration of antagonist and the relation of equiactive doses of agonist (in the presence and absence of antagonist) -1.

H1 histaminic receptor = assay: binding sites of [3H] pyrilamine
[4] = tested on: α2 adrenergic receptors of rat aorta; assay: antagonism of BHT 920 induced contraction of isolated rat aorta; design: species or system rat (female Wistar)
Procedure: The antagonism of ISK7 relative to the contracture-causing effect of BHT 920 (2-amino-6-allyl-5,6,7,8-tetrahydro[4,5-d]thiazolo-4H-azepinedihydrochloride) (α2 adrenergic agonist) on rat aorta is taken as an example. There is antagonism when a substance is capable of partially or totally opposing the effects of an agonistic substance.
Rapidly removed female Wistar rat aorta is received in a Krebs solution containing: NaCl 120 mM; KCl 4.8 mM; NaHCO3 25 mM; glucose 10 mM; CaCl2 1.25 mM; MgSO4 1.19 mM; KH2 PO4 1.14 mM. The aorta, freed of connective and adipose tissue, is cut in hoops of a length of about 1 mm. Each hoop is installed in a 10 ml organ cell containing Krebs liquid at 37°, oxygenated with an oxygen-carbon dioxide mixture (95% O2 and 5% CO2) and connected to an isometric sensor of tradename Statham and made by Gould Inc., Medical Product Division, under a base tension of 2 g. Recording of the contractions is effected with a polygraph of tradename Beckman and made by Beckman. After a rest period (1 h) interrupted by washings, a first effect-concentration relation is established by studying the contraction provoked by addition in the cell of increasing concentrations of BHT 920. After a new rest period interrupted by washings (30 min.) where the organ returns to the initial tension, the antagonist is placed in contact with the vessel for 10 minutes; the a new effect-concentration relation with BHT 920 is established. In preliminary experiments, it was established that the first and second effect-concentration relation of the agonist are identical in the absence of antagonist. […] The displacement increases with ISK concentration. […] The apparent dissociation constant of ISK7, calculated from experiments illustrated in FIG. 1 for a competitive antagonism according to Furchgott R. F. (in Catecholamines, ed. by Blaschko and Muscholl, Springer-Verlag, Berlin, 1972, pp. 283-335) is 1.2×10^-7 M for the two concentrations employed. […]

[5] = target: T3, α2 adrenergic receptors of isolated rat deferent canal (Rattus norvegicus, UniProt P22909); assay: antagonism with clonidine on electrically stimulated rat deferent canal
T3 sequence (P22909 1-465): T1 sequence (P22909 1-465)
Procedure: Each organ is connected to an isometric sensor of tradename Statham, made by Gould Inc., Medical Product Division, under a base tension of 0.5 g. Contractions are recorded by a polygraph of tradename Beckman, made by Beckman. To characterize the α2 blocking effect, the deferent canal is electrically stimulated by rectangular impulses of 2 msec duration, 30 volts, with a frequency of 0.2 Hz delivered by a stimulator of tradename Bioscience (Stimulator 100), made by Palmer. After a rest period of 20-30 minutes, increasing concentrations of clonidine are added to the survival medium over 2 minutes. This permits establishing the relation between the effect and concentration of clonidine. After generating two successive, cumulative effect-concentration curves separated by a rest period of 20 minutes, the antagonist is placed in contact with the isolated organ for 10 minutes and a new effect-concentration relationship is determined. In preliminary experiments, it was established that the second and third effect-concentration relation with the agonist are identical in the absence of antagonist.
To characterize the α1 blocking effect, the organ is stimulated by phenylephrine. Stimulation of the rat deferent canal produces a rapid contractile response (maximum contraction is obtained in 30 seconds). After a rest period of 30 minutes, increasing concentrations of phenylephrine are added in the organ cell over 30 seconds. A first effect-concentration relationship is established. After a washing and a new rest period of 15 mins. wherein the organ returns to the initial tension, a second effect-concentration relationship is effected. The antagonist is placed in contact with the tissue returned to its base tension after washing and a third effect-concentration relationship is determined. In preliminary experiments, it was established that the second and third effect-concentration relationship of the agonist are identical in the absence of antagonist. […] The apparent dissociation constant (KD), calculated according to Furchgott, is the relation between the molar concentration of antagonist and the relation of equiactive doses of agonist (in the presence and absence of antagonist) -1.
The effect (inhibition of the contractile response) is expressed as a percentage of the maximum effect.

D2 dopaminergic receptor = assay: binding sites of [3H] dexetimide
[6] = tested on: binding sites of [^3 H] nitrendipine (calcium influx blocking agent); assay: binding sites of [3H] nitrendipine
α1 receptors = conditions: statement in words, background; cited from earlier work

Ki [1]: 1400 ± 375 nM | Ki [2]: > 30000 nM
Compound: Nc1cc(Cl)ccc1CN1CCc2ccccc2C1 [ISK25, 2-(2-amino-4-chlorobenzyl)-1,2,3,4-tetrahydroisoquinoline]

Ki [1]: 155 ± 35 nM | Ki [2]: 1800 ± 330 nM
Compound: COc1ccc2c(c1)CCN(Cc1ccc(Cl)cc1N)C2 [ISK31, 2-(2-amino-4-chlorobenzyl)-6-methoxy-1,2,3,4-tetrahydroisoquinoline]

Kd ([2]; read-out: KD of Prazosine [^3 H], radioligand): 0.14 nM
Compound: COc1cc2nc(N3CCN(C(=O)c4ccco4)CC3)nc(N)c2cc1OC [Prazosine [^3 H], reference compound]

slope of Schild relation, antagonism with phenylephrine [3]: 0.99
Compound: COc1cc2nc(N3CCN(C(=O)c4ccco4)CC3)nc(N)c2cc1OC [Prazosine, reference compound]
effect on effect-concentration curves of phenylephrine [3]: shifted toward the right without depression of the maximum

More lines, now with the values behind:

Compound: COc1cc(N)c(CN2CCc3cc(OC)c(OC)cc3C2)cc1OC [ISK4, 2-(2-amino-4,5-dimethoxybenzyl)-6,7-dimethoxy-1,2,3,4-tetrahydroisoquinoline]
Ki [1]: 810 ± 110 nM | Ki [2]: 2900 ± 400 nM

Compound: COc1ccc2c(c1)CCN(Cc1cc(OC)c(OC)cc1N)C2 [ISK7, 2-(2-amino-4,5-dimethoxybenzyl)-6-methoxy-1,2,3,4-tetrahydroisoquinoline]
affinity for the binding sites of [^3 H] ketanserine (serotonergic receptor): no affinity | effect on effect-concentration curves of phenylephrine [3]: shifted toward the right without depression of the maximum | slope of Schild relation, antagonism with phenylephrine [3]: very different than 1 | Kd ([3]; read-out: log of KD, antagonism with phenylephrine (pA2 cannot be calculated) (converted)): 2880 nM | inhibition of the effect of phenylephrine relative to clonidine ([3]; α1 versus α2, rat deferent canal): only at concentrations very significantly higher than the concentrations at which it competitively inhibits the effect of α2 selective agonist, clonidine | affinity for the binding sites of [^3 H] pyrilamine (H1 histaminic receptor): no affinity | Ki [1]: 63 ± 20 nM | Kd ([4]; according to Furchgott, competitive antagonism, two concentrations (10^-7 and 10^-6), read-out: apparent dissociation constant (antagonism of BHT 920, rat aorta)): 120 nM | pA2 on aorta ([4]; antagonism with BHT 920): 6.9 | effect on effect-concentration curve of BHT 920 ([4]; rat aorta, 10 minutes contact): shift to the right of the effect-concentration curve of the agonist, without depression of the maximum | Kb [5]: 200 nM | effect on effect-concentration curves of clonidine ([5]; FIG. 2, ISK7 100-3000 nM, prazosine 1000-10,000 nM, yohimbine 30-1000 nM): shift toward the right of the effect-concentration curves of agonist without diminution of the maximum effect | antagonist selectivity on isolated rat deferent canal ([5]; clonidine (α2) versus phenylephrine (α1)): selective, α2 type adrenergic antagonist | slope of Schild relation, antagonism with clonidine ([5]; rat deferent canal, electric stimulation): 1.05 | Ki [2]: 990 ± 50 nM | affinity for the binding sites of [^3 H] dexetimide (D2 dopaminergic receptor): no affinity | affinity for the binding sites of [^3 H] nitrendipine [6]: no affinity

Compound: COc1cc2c(cc1OC)CN(Cc1ccccc1N)CC2 [ISK17, 2-(2-aminobenzyl)-6,7-dimethoxy-1,2,3,4-tetrahydroisoquinoline]
Ki [1]: 1700 ± 300 nM | Ki [2]: 3400 ± 300 nM

Compound: COc1cc(N)c(CN2CCc3ccccc3C2)cc1OC [ISK18, 2-(2-amino-4,5-dimethoxybenzyl)-1,2,3,4-tetrahydroisoquinoline]
Ki [1]: 220 ± 75 nM | Ki [2]: 3220 ± 70 nM

Compound: CNc1cc(OC)c(OC)cc1CN1CCc2cc(OC)c(OC)cc2C1 [ISK23, 2-(2-methylamino-4,5-dimethoxybenzyl)-6,7-dimethoxy-1,2,3,4-tetrahydroisoquinoline]
Ki [1]: 2670 ± 400 nM | Ki [2]: > 10000 nM

Compound: O=[N+]([O-])c1cc(Cl)ccc1CN1CCc2ccccc2C1 [ISK24, 2-(2-nitro-4-chlorobenzyl)-1,2,3,4-tetrahydroisoquinoline]
Ki [1]: 2740 ± 1020 nM | Ki [2]: > 30000 nM

Compound: COC(=O)[C@@H]1[C@H]2C[C@H]3c4[nH]c5ccccc5c4CCN3C[C@@H]2CC[C@@H]1O [Yohimbine, reference compound]
effect on effect-concentration curves of phenylephrine [3]: shifted toward the right without depression of the maximum | slope of Schild relation, antagonism with phenylephrine [3]: 0.85 | effect on effect-concentration curves of clonidine [5]: shift toward the right of the effect-concentration curves of agonist without diminution of the maximum effect | slope of Schild relation, antagonism with clonidine [5]: 1.15 | Ki [2]: 350 ± 30 nM | affinity for α1 receptors (α1 receptors): only slight affinity

Source: patent US4925943A, “2-(2-aminobenzyl or 2-nitrobenzyl)-1,2,3,4-tetrahydroisoquinoline derivatives” (priority 1986, dated 1990)
